Experimental data: US20020111274A1, “1-alkyl-3-[1-(substituted phenyl) benzotriazol-6-yl] uracils” (BASF Aktiengesellschaft, priority 2000, published 2002)

Key:
Design in all cases: scale not given here
[1] = tested on: ABUTH Velvetleaf; assay: Postemergence herbicidal evaluation, ABUTH; format: in vivo, Abutilon theophrasti, Medic.; conditions: postemergence spray, rated about two-three weeks after treatment
How it was run: (§1)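 For this test, compound in an 80/20 acetone/water vehicle with 1.0% seed oil was sprayed over two-week-old seedlings at about 0.006 to 0.400 kg per hectare. Injury was assessed visually two to three weeks on.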

[2] = tested on: AMBEL Ragweed, Common; assay: Postemergence herbicidal evaluation, AMBEL; format: in vivo, Ambrosia artemisifolia, L.; conditions: postemergence spray, rated about two-three weeks after treatment
How it was run: as §1

[3] = tested on: CASOB Sicklepod; assay: Postemergence herbicidal evaluation, CASOB; format: in vivo, Cassia obtusifolia, L.; conditions: postemergence spray, rated about two-three weeks after treatment
How it was run: as §1

[4] = tested on: CHEAL Lambsquarters, Common; assay: Postemergence herbicidal evaluation, CHEAL; format: in vivo, Chenopodium album, L.; conditions: postemergence spray, rated about two-three weeks after treatment
How it was run: as §1

[5] = tested on: ECHOG Barnyardgrass; assay: Postemergence herbicidal evaluation, ECHOG; format: in vivo, Echinochloa crus-galli, (L.) Beau; conditions: postemergence spray, rated about two-three weeks after treatment
How it was run: as §1

[6] = tested on: GALAP Galium; assay: Postemergence herbicidal evaluation, GALAP; format: in vivo, Galium aparine; conditions: postemergence spray, rated about two-three weeks after treatment
How it was run: as §1

[7] = tested on: IPOHE Morningglory, Ivyleaf; assay: Postemergence herbicidal evaluation, IPOHE; format: in vivo, Ipomoea hederacea, (L.) Jacq.; conditions: postemergence spray, rated about two-three weeks after treatment
How it was run: as §1

[8] = tested on: SETVI Foxtail, Green; assay: Postemergence herbicidal evaluation, SETVI; format: in vivo, Setaria viridis, (L.) Beau; conditions: postemergence spray, rated about two-three weeks after treatment
How it was run: as §1

[9] = tested on: GLXMAW Soybean, Williams; assay: Postemergence herbicidal evaluation, GLXMAW; format: in vivo, Glycine max, (L.) Merr. cv Williams; conditions: postemergence spray, rated about two-three weeks after treatment
How it was run: as §1

[10] = tested on: TRZAWR Wheat, Winter, cv Riband; assay: Postemergence herbicidal evaluation, TRZAWR; format: in vivo, Triticum aestivum; conditions: postemergence spray, rated about two-three weeks after treatment
How it was run: as §1

[11] = tested on: ORYSAT Rice, Tebonnet; assay: Postemergence herbicidal evaluation, ORYSAT; format: in vivo, Oryza sativa, (L.); conditions: postemergence spray, rated about two-three weeks after treatment
How it was run: as §1

[12] = tested on: ZEAMX Corn, Field; assay: Postemergence herbicidal evaluation, ZEAMX; format: in vivo, Zea mays, L. (Sammel-Bezeichnung); conditions: postemergence spray, rated about two-three weeks after treatment
How it was run: as §1

[13] = tested on: ABUTH Velvetleaf; assay: Preemergence herbicidal evaluation, ABUTH; format: in vivo, Abutilon theophrasti, Medic.; conditions: preemergence
How it was run: (§2)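 Visual ratings were taken four to five weeks after application. Before that, cups sown with seed in potting soil received a spray of compound dissolved in aqueous acetone, equivalent to about 0.013 to 0.800 kg/ha, and stood on greenhouse benches under conventional care.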

[14] = tested on: AMBEL Ragweed, Common; assay: Preemergence herbicidal evaluation, AMBEL; format: in vivo, Ambrosia artemisifolia, L.; conditions: preemergence
How it was run: as §2

[15] = tested on: CASOB Sicklepod; assay: Preemergence herbicidal evaluation, CASOB; format: in vivo, Cassia obtusifolia, L.; conditions: preemergence
How it was run: as §2

[16] = tested on: CHEAL Lambsquarters, Common; assay: Preemergence herbicidal evaluation, CHEAL; format: in vivo, Chenopodium album, L.; conditions: preemergence
How it was run: as §2

[17] = tested on: ECHOG Barnyardgrass; assay: Preemergence herbicidal evaluation, ECHOG; format: in vivo, Echinochloa crus-galli, (L.) Beau; conditions: preemergence
How it was run: as §2

[18] = tested on: GALAP Galium; assay: Preemergence herbicidal evaluation, GALAP; format: in vivo, Galium aparine; conditions: preemergence
How it was run: as §2

[19] = tested on: IPOHE Morningglory, Ivyleaf; assay: Preemergence herbicidal evaluation, IPOHE; format: in vivo, Ipomoea hederacea, (L.) Jacq.; conditions: preemergence
How it was run: as §2

[20] = tested on: SETVI Foxtail, Green; assay: Preemergence herbicidal evaluation, SETVI; format: in vivo, Setaria viridis, (L.) Beau; conditions: preemergence
How it was run: as §2

[21] = tested on: GLXMAW Soybean, Williams; assay: Preemergence herbicidal evaluation, GLXMAW; format: in vivo, Glycine max, (L.) Merr. cv Williams; conditions: preemergence
How it was run: as §2

[22] = tested on: TRZAWR Wheat, Winter, cv Riband; assay: Preemergence herbicidal evaluation, TRZAWR; format: in vivo, Triticum aestivum; conditions: preemergence
How it was run: as §2

[23] = tested on: ORYSAT Rice, Tebonnet; assay: Preemergence herbicidal evaluation, ORYSAT; format: in vivo, Oryza sativa, (L.); conditions: preemergence
How it was run: as §2

[24] = tested on: ZEAMX Corn, Field; assay: Preemergence herbicidal evaluation, ZEAMX; format: in vivo, Zea mays, L. (Sammel-Bezeichnung); conditions: preemergence
How it was run: as §2

Cc1ccc(O)cc1-n1nnc2cc(F)c(-n3c(=O)cc(C(F)(F)F)n(C)c3=O)cc21 [Example 32]
Postemergence herbicidal rating ABUTH ([1]; 0.008 kg/ha): 0.0 | Postemergence herbicidal rating ABUTH ([1]; 0.016 kg/ha): 0.0 | Postemergence herbicidal rating ABUTH ([1]; 0.032 kg/ha): 0.0 | Postemergence herbicidal rating ABUTH ([1]; 0.062 kg/ha): 4.0 | Postemergence herbicidal rating AMBEL ([2]; 0.008 kg/ha): 0.0 | Postemergence herbicidal rating AMBEL ([2]; 0.016 kg/ha): 0.0 | Postemergence herbicidal rating AMBEL ([2]; 0.032 kg/ha): 0.0 | Postemergence herbicidal rating AMBEL ([2]; 0.062 kg/ha): 0.0 | Postemergence herbicidal rating CASOB ([3]; 0.008 kg/ha): 0.0 | Postemergence herbicidal rating CASOB ([3]; 0.016 kg/ha): 0.0 | Postemergence herbicidal rating CASOB ([3]; 0.032 kg/ha): 0.0 | Postemergence herbicidal rating CASOB ([3]; 0.062 kg/ha): 0.0 | Postemergence herbicidal rating CHEAL ([4]; 0.008 kg/ha): 0.0 | Postemergence herbicidal rating CHEAL ([4]; 0.016 kg/ha): 0.0 | Postemergence herbicidal rating CHEAL ([4]; 0.032 kg/ha): 0.0 | Postemergence herbicidal rating CHEAL ([4]; 0.062 kg/ha): 0.0 | Postemergence herbicidal rating ECHCG ([5]; 0.008 kg/ha): 0.0 | Postemergence herbicidal rating ECHCG ([5]; 0.016 kg/ha): 0.0 | Postemergence herbicidal rating ECHCG ([5]; 0.032 kg/ha): 0.0 | Postemergence herbicidal rating ECHCG ([5]; 0.062 kg/ha): 0.0 | Postemergence herbicidal rating GALAP ([6]; 0.008 kg/ha): 0.0 | Postemergence herbicidal rating GALAP ([6]; 0.016 kg/ha): 0.0 | Postemergence herbicidal rating GALAP ([6]; 0.032 kg/ha): 0.0 | Postemergence herbicidal rating GALAP ([6]; 0.062 kg/ha): 0.0 | Postemergence herbicidal rating IPOHE ([7]; 0.008 kg/ha): 0.0 | Postemergence herbicidal rating IPOHE ([7]; 0.016 kg/ha): 0.0 | Postemergence herbicidal rating IPOHE ([7]; 0.032 kg/ha): 0.0 | Postemergence herbicidal rating IPOHE ([7]; 0.062 kg/ha): 0.0 | Postemergence herbicidal rating SETVI ([8]; 0.008 kg/ha): 0.0 | Postemergence herbicidal rating SETVI ([8]; 0.016 kg/ha): 0.0 | Postemergence herbicidal rating SETVI ([8]; 0.032 kg/ha): 0.0 | Postemergence herbicidal rating SETVI ([8]; 0.062 kg/ha): 0.0 | Postemergence herbicidal rating GLXMAW ([9]; 0.008 kg/ha): 2.0 | Postemergence herbicidal rating GLXMAW ([9]; 0.016 kg/ha): 2.5 | Postemergence herbicidal rating GLXMAW ([9]; 0.032 kg/ha): 3.0 | Postemergence herbicidal rating GLXMAW ([9]; 0.062 kg/ha): 3.0 | Postemergence herbicidal rating TRZAWR ([10]; 0.008 kg/ha): 1.0 | Postemergence herbicidal rating TRZAWR ([10]; 0.016 kg/ha): 2.5 | Postemergence herbicidal rating TRZAWR ([10]; 0.032 kg/ha): 2.5 | Postemergence herbicidal rating TRZAWR ([10]; 0.062 kg/ha): 3.0 | Postemergence herbicidal rating ORYSAT ([11]; 0.008 kg/ha): 1.0 | Postemergence herbicidal rating ORYSAT ([11]; 0.016 kg/ha): 1.5 | Postemergence herbicidal rating ORYSAT ([11]; 0.032 kg/ha): 1.5 | Postemergence herbicidal rating ORYSAT ([11]; 0.062 kg/ha): 2.0 | Postemergence herbicidal rating ZEAMX ([12]; 0.008 kg/ha): 2.0 | Postemergence herbicidal rating ZEAMX ([12]; 0.016 kg/ha): 2.5 | Postemergence herbicidal rating ZEAMX ([12]; 0.032 kg/ha): 2.5 | Postemergence herbicidal rating ZEAMX ([12]; 0.062 kg/ha): 2.5 | ABUTH herbicidal rating ([13]; rate 0.016 kg/ha): 0.0 | ABUTH herbicidal rating ([13]; rate 0.032 kg/ha): 0.0 | ABUTH herbicidal rating ([13]; rate 0.062 kg/ha): 0.0 | ABUTH herbicidal rating ([13]; rate 0.125 kg/ha): 4.0 | AMBEL herbicidal rating ([14]; rate 0.016 kg/ha): 0.0 | AMBEL herbicidal rating ([14]; rate 0.032 kg/ha): 0.0 | AMBEL herbicidal rating ([14]; rate 0.062 kg/ha): 0.0 | AMBEL herbicidal rating ([14]; rate 0.125 kg/ha): 0.0 | CASOB herbicidal rating ([15]; rate 0.016 kg/ha): 0.0 | CASOB herbicidal rating ([15]; rate 0.032 kg/ha): 0.0 | CASOB herbicidal rating ([15]; rate 0.062 kg/ha): 0.0 | CASOB herbicidal rating ([15]; rate 0.125 kg/ha): 0.0 | CHEAL herbicidal rating ([16]; rate 0.016 kg/ha): 0.0 | CHEAL herbicidal rating ([16]; rate 0.032 kg/ha): 0.0 | CHEAL herbicidal rating ([16]; rate 0.062 kg/ha): 0.0 | CHEAL herbicidal rating ([16]; rate 0.125 kg/ha): 6.0 | ECHCG herbicidal rating ([17]; rate 0.016 kg/ha): 0.0 | ECHCG herbicidal rating ([17]; rate 0.032 kg/ha): 0.0 | ECHCG herbicidal rating ([17]; rate 0.062 kg/ha): 0.0 | ECHCG herbicidal rating ([17]; rate 0.125 kg/ha): 0.0 | GALAP herbicidal rating ([18]; rate 0.016 kg/ha): 0.0 | GALAP herbicidal rating ([18]; rate 0.032 kg/ha): 0.0 | GALAP herbicidal rating ([18]; rate 0.062 kg/ha): 0.0 | IPOHE herbicidal rating ([19]; rate 0.016 kg/ha): 0.0 | IPOHE herbicidal rating ([19]; rate 0.032 kg/ha): 0.0 | IPOHE herbicidal rating ([19]; rate 0.062 kg/ha): 0.0 | IPOHE herbicidal rating ([19]; rate 0.125 kg/ha): 0.0 | SETVI herbicidal rating ([20]; rate 0.016 kg/ha): 0.0 | SETVI herbicidal rating ([20]; rate 0.032 kg/ha): 0.0 | SETVI herbicidal rating ([20]; rate 0.062 kg/ha): 0.0 | SETVI herbicidal rating ([20]; rate 0.125 kg/ha): 0.0 | GLXMAW herbicidal rating ([21]; rate 0.016 kg/ha): 0.0 | GLXMAW herbicidal rating ([21]; rate 0.032 kg/ha): 0.0 | GLXMAW herbicidal rating ([21]; rate 0.062 kg/ha): 0.0 | GLXMAW herbicidal rating ([21]; rate 0.125 kg/ha): 1.0 | TRZAWR herbicidal rating ([22]; rate 0.016 kg/ha): 0.0 | TRZAWR herbicidal rating ([22]; rate 0.032 kg/ha): 0.0 | TRZAWR herbicidal rating ([22]; rate 0.062 kg/ha): 0.0 | TRZAWR herbicidal rating ([22]; rate 0.125 kg/ha): 0.0 | ORYSAT herbicidal rating ([23]; rate 0.016 kg/ha): 0.0 | ORYSAT herbicidal rating ([23]; rate 0.032 kg/ha): 0.0 | ORYSAT herbicidal rating ([23]; rate 0.062 kg/ha): 0.0 | ORYSAT herbicidal rating ([23]; rate 0.125 kg/ha): 0.0 | ZEAMX herbicidal rating ([24]; rate 0.016 kg/ha): 0.0 | ZEAMX herbicidal rating ([24]; rate 0.032 kg/ha): 0.0 | ZEAMX herbicidal rating ([24]; rate 0.062 kg/ha): 0.0 | ZEAMX herbicidal rating ([24]; rate 0.125 kg/ha): 1.0
